Our source for the EC50 values is US20250163066A1, “PROTACs of MALT1” (TEGID THERAPEUTICS, INC., priority 2022, published 2025).

Molecules are shown by their SMILES.

Chain of MALT1 (Q9UDY8 whole entry): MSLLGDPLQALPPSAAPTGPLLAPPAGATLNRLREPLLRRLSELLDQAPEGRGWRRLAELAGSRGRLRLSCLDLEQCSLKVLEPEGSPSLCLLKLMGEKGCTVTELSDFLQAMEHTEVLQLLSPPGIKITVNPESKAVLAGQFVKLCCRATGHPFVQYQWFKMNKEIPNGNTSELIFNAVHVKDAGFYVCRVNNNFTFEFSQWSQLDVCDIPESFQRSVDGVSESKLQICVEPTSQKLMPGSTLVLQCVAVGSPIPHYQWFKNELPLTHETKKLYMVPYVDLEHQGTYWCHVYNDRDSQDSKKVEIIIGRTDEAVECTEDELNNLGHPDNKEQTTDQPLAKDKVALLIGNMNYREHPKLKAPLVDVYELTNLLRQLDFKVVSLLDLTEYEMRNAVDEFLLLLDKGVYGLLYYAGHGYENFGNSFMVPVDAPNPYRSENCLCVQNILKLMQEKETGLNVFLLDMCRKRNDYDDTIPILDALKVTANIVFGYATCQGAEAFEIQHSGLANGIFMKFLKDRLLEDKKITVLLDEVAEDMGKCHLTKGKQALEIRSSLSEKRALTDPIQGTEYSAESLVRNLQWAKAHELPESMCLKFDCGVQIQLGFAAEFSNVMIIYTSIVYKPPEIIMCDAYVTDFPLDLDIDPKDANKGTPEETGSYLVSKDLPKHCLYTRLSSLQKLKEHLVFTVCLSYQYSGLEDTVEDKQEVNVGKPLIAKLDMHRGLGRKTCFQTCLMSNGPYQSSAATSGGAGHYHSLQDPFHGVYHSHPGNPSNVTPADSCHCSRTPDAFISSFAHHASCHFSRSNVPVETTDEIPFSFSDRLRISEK

In this test the target is MALT1 (Homo sapiens (Human), UniProt Q9UDY8). Kind of test: MALT1 enzymatic activity inhibition (fluorescence, Ac-LRSR-AMC substrate). Format: biochemical. The settings on record: recombinant MALT1 1.5 ng/μl, Ac-LRSR-AMC 1 μM. The method, then:
Compound activity was determined using recombinant MALT1 protein (Creative Biomart, Cat #MALT1-28H) and Ac-LRSR-AMC Substrate in an in vitro enzymatic reaction. The enzymatic assay used to determine activity was a Fluorescence assay using a Microplate Reader ClarioStar Plus. The enzymatic reaction was carried out in 1× Assay Buffer (50 mM HEPES pH 7.2-7.4, 100 mM NaCl, 900 mM Sodium citrate, 10 mM DTT). The compounds were dispensed on a 384-well Diamond Well Plate (Axygen, Cat #P-384-120SQ-C—S) using the Biomek FX liquid handling system at 100× solutions of compounds in DMSO. 2.5×MALT1 mix (final concentration 1.5 ng/μl of MALT1) was prepared in 1× Assay Buffer and 8 μl of mixture per well were added into 384w white Reaction Plates with NBS (Corning, Cat #4513). 8 μl of 1× Assay Buffer were used for negative control. Plates were centrifuged for 1 min at 200 g. Next, the compounds were added to Reaction plates using Biomek station via following steps: 1 μl of 100× compounds (in DMSO) was mixed thoroughly with 19 μl of 1× Assay Buffer, then 4 μl of this mixture were added to Reaction plates with 8 μl of MALT1 mix. Plates were centrifuged for 1 min at 200 g and incubated for 10 minutes at rt. Next, 2.5× Ac-LRSR-AMC mix (final concentration 1 μM of Ac-LRSR-AMC) was prepared in 1× Assay Buffer and 8 μl of mixture per well were added to Reaction Plates using Biomek station. Plates were centrifuged for 1 min at 200 g, then the fluorescence was measured immediately using Microplate Reader. Plates were incubated for 30 minutes at 37° C., then for 30 minutes at rt. The fluorescence was measured after the whole incubation using Microplate Reader. The reaction signal was calculated as the subtraction of the first data set values from the second. The % inhibition was then used to calculate the IC50 values. The results of this assay are shown in the Table A. The values of EC50 shown as a letters A-E, where: A≤0.2 μM; 0.2 μM<B≤0.5 μM; 0.5 μM<C≤1 μM; 1<D≤5 μM; E >5.
For the compound `O=C(CCOCCN1CCN(c2ccc3c(c2)CN(C2CCC(=O)NC2=O)C3=O)CC1)NCCOc1ncc(Cl)cc1NC(=O)Nc1cnc2ncnn2c1C1CCCCC1` (centres unmarked) [Compound 51, N-[2-[[5-chloro-3-[(7-cyclohexyl-[1,2,4]triazolo[1,5-a]pyrimidin-6-yl)carbamoylamino]-2-pyridyl]oxy]ethyl]-3-[2-[4-[2-(2,6-dioxo-3-piperidyl)-1-oxo-isoindolin-5-yl]piperazin-1-yl]ethoxy]propanamide], the EC50 is greater than 5 µM.
In the case of `O=C(CCOCCN1CCN(c2ccc3c(c2)CN(C2CCC(=O)NC2=O)C3=O)CC1)NCCOc1ncc(Cl)cc1NC(=O)Nc1cnc2nccn2c1C1CCCC1` (centres unmarked) [Compound 52, N-[2-[[5-chloro-3-[(5-cyclopentylimidazo[1,2-a]pyrimidin-6-yl)carbamoylamino]-2-pyridyl]oxy]ethyl]-3-[2-[4-[2-(2,6-dioxo-3-piperidyl)-1-oxo-isoindolin-5-yl]piperazin-1-yl]ethoxy]propanamide] it was greater than 5 µM; in that of `Cc1cc(NC(=O)Nc2cnc3ccnn3c2C2CCCO2)cnc1-c1noc(CCCC(=O)N2CCN(c3ccc4c(c3)CN(C3CCC(=O)NC3=O)C4=O)CC2)n1` (centres unmarked) [Compound 58, 1-[6-[5-[4-[4-[2-(2,6-dioxo-3-piperidyl)-1-oxo-isoindolin-5-yl]piperazin-1-yl]-4-oxo-butyl]-1,2,4-oxadiazol-3-yl]-5-methyl-3-pyridyl]-3-(7-tetrahydrofuran-2-ylpyrazolo[1,5-a]pyrimidin-6-yl)urea], no more than 0.2 µM; in that of `Cc1cc2ncc(NC(=O)Nc3cnc(-c4noc(CCCCC(=O)N5CCN(c6ccc7c(c6)CN(C6CCC(=O)NC6=O)C7=O)CC5)n4)c(C)c3)c(C3CCCC3)n2n1` (centres unmarked) [Compound 59, 1-(7-cyclopentyl-2-methyl-pyrazolo[1,5-a]pyrimidin-6-yl)-3-[6-[5-[5-[4-[2-(2,6-dioxo-3-piperidyl)-1-oxo-isoindolin-5-yl]piperazin-1-yl]-5-oxo-pentyl]-1,2,4-oxadiazol-3-yl]-5-methyl-3-pyridyl]urea], no more than 0.2 µM.
For `Cc1cc(NC(=O)Nc2cnc3ccnn3c2C2CCCO2)cnc1-c1noc(CCC(=O)N2CCN(c3ccc4c(c3)CN(C3CCC(=O)NC3=O)C4=O)CC2)n1` (centres unmarked) [Compound 60, 1-[6-[5-[3-[4-[2-(2,6-dioxo-3-piperidyl)-1-oxo-isoindolin-5-yl]piperazin-1-yl]-3-oxo-propyl]-1,2,4-oxadiazol-3-yl]-5-methyl-3-pyridyl]-3-(7-tetrahydrofuran-2-ylpyrazolo[1,5-a]pyrimidin-6-yl)urea], the EC50 is no more than 0.2 µM.
In the case of `Cc1cc(NC(=O)Nc2cnc3ccnn3c2C2CCCC2)cnc1-c1noc(CCCCCC(=O)Nc2ccc3c(c2)CN(C2CCC(=O)NC2=O)C3=O)n1` (centres unmarked) [Compound 61, 6-[3-[5-[(7-cyclopentylpyrazolo[1,5-a]pyrimidin-6-yl)carbamoylamino]-3-methyl-2-pyridyl]-1,2,4-oxadiazol-5-yl]-N-[2-(2,6-dioxo-3-piperidyl)-1-oxo-isoindolin-5-yl]hexanamide] it was no more than 0.2 µM; in that of `Cc1cc(NC(=O)Nc2cnc3ccnn3c2C2CCCO2)cnc1-c1noc(CCCN2CCN(c3ccc4c(c3)CN(C3CCC(=O)NC3=O)C4=O)CC2)n1` (centres unmarked) [Compound 62, 1-[6-[5-[3-[4-[2-(2,6-dioxo-3-piperidyl)-1-oxo-isoindolin-5-yl]piperazin-1-yl]propyl]-1,2,4-oxadiazol-3-yl]-5-methyl-3-pyridyl]-3-(7-tetrahydrofuran-2-ylpyrazolo[1,5-a]pyrimidin-6-yl)urea], no more than 0.2 µM.
In the case of `Cc1cc(NC(=O)Nc2cnc3ccnn3c2C2CCCC2)cnc1-c1noc(CCCCCN2CCN(c3ccc4c(c3)CN(C3CCC(=O)N(C)C3=O)C4=O)CC2)n1` (centres unmarked) [Compound 64, 1-(7-cyclopentylpyrazolo[1,5-a]pyrimidin-6-yl)-3-[5-methyl-6-[5-[5-[4-[2-(1-methyl-2,6-dioxo-3-piperidyl)-1-oxo-isoindolin-5-yl]piperazin-1-yl]pentyl]-1,2,4-oxadiazol-3-yl]-3-pyridyl]urea] it was no more than 0.2 µM; in that of `Cc1c(NC(=O)Nc2cnc(-c3noc(CCCCCC(=O)N4CCN(c5ccc6c(c5)CN(C5CCC(=O)NC5=O)C6=O)CC4)n3)c(Cl)c2)cnc2ccnn12` (centres unmarked) [Compound 65, 1-[5-chloro-6-[5-[6-[4-[2-(2,6-dioxo-3-piperidyl)-1-oxo-isoindolin-5-yl]piperazin-1-yl]-6-oxo-hexyl]-1,2,4-oxadiazol-3-yl]-3-pyridyl]-3-(7-methylpyrazolo[1,5-a]pyrimidin-6-yl)urea], 0.2 to 0.5 µM.
The result for `CC(C)c1c(NC(=O)Nc2cnc(-c3noc(CCCCCC(=O)N4CCN(c5ccc6c(c5)CN(C5CCC(=O)NC5=O)C6=O)CC4)n3)c(Cl)c2)cnc2ccnn12` (centres unmarked) [Compound 66, 1-[5-chloro-6-[5-[6-[4-[2-(2,6-dioxo-3-piperidyl)-1-oxo-isoindolin-5-yl]piperazin-1-yl]-6-oxo-hexyl]-1,2,4-oxadiazol-3-yl]-3-pyridyl]-3-(7-isopropylpyrazolo[1,5-a]pyrimidin-6-yl)urea] reads no more than 0.2 µM; that for `Cc1cc2ncc(NC(=O)Nc3cnc(-c4noc(CCCCCC(=O)N5CCN(c6ccc7c(c6)CN(C6CCC(=O)NC6=O)C7=O)CC5)n4)c(C)c3)c(C3CCCO3)n2n1` (centres unmarked) [Compound 67, 1-[6-[5-[6-[4-[2-(2,6-dioxo-3-piperidyl)-1-oxo-isoindolin-5-yl]piperazin-1-yl]-6-oxo-hexyl]-1,2,4-oxadiazol-3-yl]-5-methyl-3-pyridyl]-3-(2-methyl-7-tetrahydrofuran-2-yl-pyrazolo[1,5-a]pyrimidin-6-yl)urea], no more than 0.2 µM; that for `Cc1cc(NC(=O)Nc2cnc3ccnn3c2C2CCCC2)cnc1-c1noc(CCCCCCN2CCN(c3ccc4c(c3)CN(C3CCC(=O)NC3=O)C4=O)CC2)n1` (centres unmarked) [Compound 68, 1-(7-cyclopentylpyrazolo[1,5-a]pyrimidin-6-yl)-3-[6-[5-[6-[4-[2-(2,6-dioxo-3-piperidyl)-1-oxo-isoindolin-5-yl]piperazin-1-yl]hexyl]-1,2,4-oxadiazol-3-yl]-5-methyl-3-pyridyl]urea], no more than 0.2 µM.
For `CC(C)(C)C(=O)OCN1C(=O)CCC(N2Cc3cc(N4CCN(C(=O)CCCCCc5nc(-c6ncc(NC(=O)Nc7cnc8ccnn8c7C7CCCC7)cc6Cl)no5)CC4)ccc3C2=O)C1=O` (centres unmarked) [Compound 70, [3-[5-[4-[6-[3-[3-chloro-5-[(7-cyclopentylpyrazolo[1,5-a]pyrimidin-6-yl)carbamoylamino]-2-pyridyl]-1,2,4-oxadiazol-5-yl]hexanoyl]piperazin-1-yl]-1-oxo-isoindolin-2-yl]-2,6-dioxo-1-piperidyl]methyl 2,2-dimethylpropanoate], the EC50 is no more than 0.2 µM.
In the case of `O=C1CCC(N2Cc3cc(N4CCN(C(=O)CCCc5nc(-c6ncc(NC(=O)Nc7cnc8ccnn8c7C7CCCC7)cc6Cl)no5)CC4)ccc3C2=O)C(=O)N1` (centres unmarked) [Compound 71, 1-[5-chloro-6-[5-[4-[4-[2-(2,6-dioxo-3-piperidyl)-1-oxo-isoindolin-5-yl]piperazin-1-yl]-4-oxo-butyl]-1,2,4-oxadiazol-3-yl]-3-pyridyl]-3-(7-cyclopentylpyrazolo[1,5-a]pyrimidin-6-yl)urea] it was no more than 0.2 µM.
